“Also recorded” adds a separate entry of the source.
Tests used:
[1] = Example 2: growth and feed efficiency, dietary T3 and ncGH injection; assay type: in vivo, broiler cockerels (Ross X Arbor Acre)
Description: (§1) Forty-eight 3-week-old broiler cockerels (Ross X Arbor Acre) were randomly divided into four treatment groups that contained three pens of four birds. The birds were housed in a controlled-environment room under a 20 hour light/4 hour dark cycle with feed and water provided ad libitum.
(§2) The preparation of ncGH used in this study was from the same lot used in Example 1.
(§3) Body weights and feed consumption was determined at weekly intervals although the ADG, ADFC and FTG ratio was determined over the 21 day period. […] At the conclusion of the study (6 weeks-of-age), birds were killed and the abdominal fat removed and weighed. The liver and abdominal fat were returned to the carcass which was frozen for proximate analysis as described in […]

[2] = Example 3: plasma hormone levels (RIA); assay type: in vivo, broiler cockerels
Description: Day-old broiler cockerels were randomly assigned to 24 pens (5 birds/pen) in a battery brooder. The total duration of the bird management period lasted from 7 to 8 weeks. […] 3, four birds from each pen were transferred to wire grow-out cages. […] Body weight and feed consumption were determined at weekly intervals. A 5 ml blood sample was obtained from each bird at week no. 7 and stored at -20° C. until assayed for plasma hormones.
Equilibrium, double antibodies radioimmunoassays (RIA) were used to determine plasma levels of chicken growth hormone (GH) according to Proudman, Proc. Soc. […] Plasma insulin was quantified by using nonequilibrium RIA described by McMurtry et al., Poult. […] Plasma level of insulin-like growth factor-I (IGF-I) was determined by heterologous RIA in accordance with McGuinness.

[3] = 0.25 to 1 ppm in feed throughout entire growth cycle; cited from earlier work
[4] = Example 2: plasma hormone concentrations; assay type: in vivo, broiler cockerels (Ross X Arbor Acre); conditions: vs CF+BI or CF+GH treatment
Description: as §1, §2, §3

[5] = Example 1: plasma hormone concentrations (radioimmunoassays)
Excerpt: The purpose of this study was to determine the effect manipulating blood levels of thyroid hormones and/or growth hormone on growth performance and body composition of broiler chickens. […] Purified natural chicken growth hormone (ncGH) was obtained from the Research and Education Center, Harbor-UCLA Medical Center, Torrance, Calif. […] The premix (200 g) was then used to prepare 50 kg batches of each experimental diet according to the formula for broiler-finisher ration described in Table 1. The diet containing 0.5% PTU was prepared by mixing 250 g of PTU into 49.75 kg of the basal ration (Table 1).
Broiler cockerels (Ross X Arbor Acre strain) were raised to 3 weeks-of-age in a battery-brooder and then transferred to wire grow-out cages (4 birds/pen) held in two controlled-environment rooms (10 pens/room). Beginning at 3 weeks of age, eight birds (2 pens of 4 birds) were randomly assigned to each of 10 treatments. The chickens were provided the experimental diets and water ad libitum. […] For injection, the ncGH was reconstituted in sterile 0.025M sodium bicarbonate buffer (pH 9.8). The 10 treatments were administered for 21 days (i.e., from 3 to 6 weeks of age).
Measurement of body weight and feed consumption at weekly intervals allowed calculation of the average daily gain (ADG, g/bird/day), average daily feed consumption (ADFC, g/bird/day) and the feed-to-gain ratio (FIG, kg feed/kg gain) over the 21 day experimental period. Blood samples were taken each week (4, 5, and 6 weeks) just before (pre-injection) and 4 hours post-injection of ncGH. […] At the conclusion of the study, birds were killed and the carcasses frozen for proximate analysis. The frozen carcasses were ground in a meat grinder and aliquots of each ground carcass taken for determination of moisture, protein, fat and ash by established analytical procedures (Official Method of Analysis, Edition 13, W. Horwitz ed., Association of Official Analytical Chemist, Washington, D.C., 1980). Body composition data are presented as a percent of live weight at 6 weeks-of-age. Least squares regression analysis was used to test for significant differences (P<0.05) due treatment.

[6] = Example 2: final body weight, liver, abdominal fat and body composition; assay type: in vivo, broiler cockerels (Ross X Arbor Acre)
Description: as §1, §2, §3

[7] = Example 3: growth performance, graded doses of dietary T3; assay type: in vivo, broiler cockerels; conditions: for Average Daily Gain: week no. 5 to 7
Description: Day-old broiler cockerels were randomly assigned to 24 pens (5 birds/pen) in a battery brooder. The total duration of the bird management period lasted from 7 to 8 weeks. Hereafter, the end of the first week of life of the birds is referred to as week no. 1 (i.e. 7 days of life), the end of the second week as week no. 2, etc. At week no. 3, four birds from each pen were transferred to wire grow-out cages. […] 5 to week no. 7 (4 pens/treatment). Body weight and feed consumption were determined at weekly intervals. A 5 ml blood sample was obtained from each bird at week no. 7 and stored at -20° C. until assayed for plasma hormones.
Data were analyzed by analysis of variance for a randomized complete-block design. Data for ADG, ADFC and FTG were based on pen average. Unless otherwise indicated, data used for analysis was obtained from individual birds. Difference among treatments were tested by Fisher's protected LSD method.

[8] = plasma thyroid hormone bioactivity 360-1200% of normal

## N[C@@H](Cc1cc(I)c(Oc2ccc(O)c(I)c2)c(I)c1)C(=O)O [T3, 3,3',5-triiodo-L-thyronine]
[1]; 1 ppm T3 and/or ncGH 100 μg/kg/day, 21 days
  ADFC: 117.9 ± 0.8 g/bird/day
[1]; 1 ppm T3 in feed and/or ncGH 100 μg/kg/day i.m., 3 to 6 weeks, mean ±SEM of 3 pens
  ADG: 52.6 ± 1.0 g/bird/day
[1]; 21 days
  effect on ADG, ADFC and FTG ratio: not affected
[2]; 0.25 ppm
  glucagon secretion, increase: 16%
  plasma T3 level, fold elevation: 2.1 fold
  plasma insulin, reduction: 27%
[2]; 0.25 ppm (p<0.05)
  I/G ratio, reduction: 31%
[2]; 0.25 ppm of feed
  I/G Ratio (molar): 0.81 ± .20
  plasma GH: 2.0 ± 0.4 ng/mL
  plasma Glucagon: 656 ± 75 pg/mL
  plasma IGF-I: 100.7 ± 2.9 ng eg/ml
  plasma Insulin: 772 ± 155 pg/mL
  plasma T4: 6.3 ± 0.6 ng/mL
[2]; 0.25 to 4.0 ppm
  effect on plasma IGF-1 level: only reduced (p<0.05) by the 4.0 ppm level
[2]; 1 or 4 ppm (p<0.05)
  I/G molar ratio, reduction: 70-76%
[2]; 1.0 ppm (p<0.05)
  glucagon secretion, increase: 44%
  plasma insulin, reduction: 60%
[2]; 1.0 ppm of feed
  I/G Ratio (molar): 0.35 ± .06
  plasma GH: 2.1 ± 0.4 ng/mL
  plasma Glucagon: 816 ± 64 pg/mL
  plasma IGF-I: 97.7 ± 6.3 ng eg/ml
  plasma Insulin: 426 ± 65 pg/mL
  plasma T4: 6.2 ± 0.6 ng/mL
[2]; 4 ppm
  plasma T3 level, fold elevation: 12.6 fold
[2]; 4.0 ppm (p<0.05)
  glucagon secretion, increase: 46%
  plasma insulin, reduction: 68%
[2]; 4 ppm in feed
  Plasma T3 level (control group = 100% of normal): ~ 1254%
[2]; 4.0 ppm of feed
  I/G Ratio (molar): 0.28 ± .08
  plasma GH: 1.8 ± 0.2 ng/mL
  plasma Glucagon: 824 ± 61 pg/mL
  plasma IGF-I: 58.8 ± 8.2 ng eg/ml
  plasma Insulin: 344 ± 92 pg/mL
  plasma T4: 5.1 ± 0.8 ng/mL
[2]; all dietary T3 levels
  effect on plasma GH levels: decreased (p<0.05); also recorded: decrease plasma GH levels
[2]; regardless of dose level (p<0.05)
  plasma T4 level, decrease: 67%
[3]
  body weight gain, feed efficiency / growth performance: reduced body weight gain and feed efficiency
[4]
  average plasma T3 level, fold higher: 2.3 times
[5]; Group 1, dietary, N = 24
  I/G Molar Ratio: 0.51
  plasma Glucagon (G): 491 pg/mL
  plasma Insulin (I): 409 pg/mL
[5]; dietary T3 / elevated plasma T3
  effect on insulin and glucagon secretion: inhibit insulin secretion whereas glucagon secretion is enhanced; also recorded: depresses insulin secretion while glucagon secretion is increased
[5]; vs CF birds (P<0.05)
  plasma I/G molar ratio, fold lower: 4.3 times
[5]; vs CF treatment
  plasma GH level, reduction: 32%
[5]; vs average of CF and TRH treatments (P<0.05)
  plasma T4 level, reduction: 58%
[6]; 1 ppm T3, with or without ncGH
  body fat content (% BW), reduction: 16%
[6]; 1 ppm T3, with or without ncGH (P<0.05)
  abdominal fat content, reduction: 28%
[6]; 1 ppm T3 and/or ncGH 100 μg/kg/day, 6 weeks-of-age, N = 12
  Body Weight (BW), final: 1.86 ± .048 kg
[6]; N = 12
  Abdominal Fat, relative weight: 1.86 ± .396 % BW
  Body composition: Ash: 2.40 ± .054 % BW
  Body composition: Fat: 13.2 ± .62 % BW
  Body composition: Protein: 17.3 ± .36 % BW
  Body composition: Water: 65.5 ± .60 % BW
  Liver, relative weight: 2.54 ± .096 % BW
[6]; in vivo
  effect on body water and ash contents: increased
[7]; 0.25 and 1.0 ppm
  effect on ADFC and GTF: did not affect the ADFC and GTF
[7]; 0.25 ppm
  effect on ADG: the decrease in 0.25 ppm-fed birds was not significant
[7]; 0.25 ppm of feed
  Average Daily Feed Consumption: 150.2 ± 10.0 g
  Gain-To-Feed Ratio: 0.441 ± .014
  Average Daily Gain: 66.5 ± 6.0 g
[7]; 1.0 ppm of feed
  Average Daily Feed Consumption: 139.0 ± 4.6 g
  Gain-To-Feed Ratio: 0.409 ± 0.01
  Average Daily Gain: 57.0 ± 3.0 g
[7]; 4.0 ppm (p<0.05)
  ADFC, reduction: 35%
  gain to feed ratio (GTF), reduction: 33%
[7]; 4.0 ppm of feed
  Average Daily Feed Consumption: 99.5 ± 1.7 g
  Gain-To-Feed Ratio: 0.302 ± .013
  Average Daily Gain: 30.0 ± 1.1 g
[7]; [8]
  body weight gain, depression: ≤ 57%
  feed consumption, depression: ≤ 35%

— patent US5168102A, “Endocrine manipulation to improve body composition of poultry” (priority 1990, dated 1992)
